# From PubChem BioAssay (NCI)
#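 Exposure lasted 48 hours, with cells grown in 96-well plates and compounds tested at five concentrations. GI50 = concentration required for 50% inhibition of growth. Definition used: TGI = concentration required for complete inhibition of growth.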
# Legend:
# Experiment in all cases: DTP human tumour cell line panel, 48 h
# MALME-3M melanoma = system: MALME-3M melanoma
# SN12C renal = system: SN12C renal
# KM12 colon = system: KM12 colon
# SR leukemia = system: SR leukemia
# RXF 393 renal = system: RXF 393 renal
# HOP-62 NSCLC = system: HOP-62 NSCLC
# DMS 114 small cell lung = system: DMS 114 small cell lung
# NCI-H460 lung = system: NCI-H460 lung
# M19-MEL melanoma = system: M19-MEL melanoma
# OVCAR-8 ovarian = system: OVCAR-8 ovarian
compound,measurement,setting,value
CCN(CC)CCn1ccc(=O)c2cc3c(=O)ccn(CCN(CC)CC)c3c(C)c21,TGI,MALME-3M melanoma,29.6 µM
same,TGI,SN12C renal,21.3 µM
same,TGI,KM12 colon,2.61 µM
same,TGI,SR leukemia,3.94 µM
same,TGI,RXF 393 renal,14.1 µM
same,TGI,HOP-62 NSCLC,19.7 µM
same,TGI,DMS 114 small cell lung,27.6 µM
same,TGI,NCI-H460 lung,3.47 µM
same,TGI,M19-MEL melanoma,25.2 µM
same,TGI,OVCAR-8 ovarian,15.5 µM
C[N+](C)(C)CC(=O)N/N=C(/Cc1nc2c3c(ccc2[nH]c1=O)C(=O)c1ccccc1C3=O)C(=O)Nc1ccc(Cl)c(Cl)c1,TGI,MALME-3M melanoma,> 100 µM
same,TGI,SN12C renal,> 100 µM
same,TGI,KM12 colon,> 100 µM
same,TGI,SR leukemia,> 100 µM
same,TGI,RXF 393 renal,> 100 µM
same,TGI,HOP-62 NSCLC,> 100 µM
same,TGI,DMS 114 small cell lung,> 100 µM
same,TGI,NCI-H460 lung,> 100 µM
same,TGI,M19-MEL melanoma,> 100 µM
same,TGI,OVCAR-8 ovarian,> 100 µM
CCOC(=O)C1=C(C)N(Cc2ccccc2)C(C)=C(C(=O)OCC)C1c1ccccc1O,TGI,MALME-3M melanoma,73.2 µM
same,TGI,SN12C renal,> 100 µM
same,TGI,KM12 colon,64.4 µM
same,TGI,SR leukemia,54.9 µM
same,TGI,RXF 393 renal,60.2 µM
same,TGI,HOP-62 NSCLC,99.2 µM
same,TGI,DMS 114 small cell lung,43.8 µM
same,TGI,NCI-H460 lung,> 100 µM
same,TGI,M19-MEL melanoma,75.7 µM
same,TGI,OVCAR-8 ovarian,> 100 µM
CC(C)(C)OC(=O)C#CC[C@H]1CCCC1/C=C/C(O)=C1/C(=O)NC(CCCNC(=O)OC(C)(C)C)C1=O (stereo not given in full),TGI,MALME-3M melanoma,57.6 µM
same,TGI,SN12C renal,> 100 µM
same,TGI,KM12 colon,> 100 µM
same,TGI,SR leukemia,> 100 µM
same,TGI,RXF 393 renal,30 µM
same,TGI,HOP-62 NSCLC,> 100 µM
same,TGI,DMS 114 small cell lung,61.3 µM
same,TGI,NCI-H460 lung,61.6 µM
same,TGI,M19-MEL melanoma,67.9 µM
same,TGI,OVCAR-8 ovarian,31.6 µM
CC(C)C(=O)Nc1nc2nc[nH]c2c(=O)[nH]1,TGI,MALME-3M melanoma,> 100 µM
same,TGI,SN12C renal,> 100 µM
same,TGI,KM12 colon,> 100 µM
same,TGI,SR leukemia,> 100 µM
same,TGI,RXF 393 renal,> 100 µM
same,TGI,HOP-62 NSCLC,> 100 µM
same,TGI,DMS 114 small cell lung,> 100 µM
same,TGI,NCI-H460 lung,> 100 µM
same,TGI,M19-MEL melanoma,> 100 µM
same,TGI,OVCAR-8 ovarian,> 100 µM
Cc1ccc(C(=O)O/N=C2/CCC/C2=C\c2ccccc2)cc1,TGI,MALME-3M melanoma,> 100 µM
same,TGI,SN12C renal,> 100 µM
same,TGI,KM12 colon,> 100 µM
same,TGI,SR leukemia,> 100 µM
same,TGI,RXF 393 renal,> 100 µM
same,TGI,HOP-62 NSCLC,> 100 µM
same,TGI,DMS 114 small cell lung,> 100 µM
same,TGI,NCI-H460 lung,> 100 µM
same,TGI,M19-MEL melanoma,> 100 µM
same,TGI,OVCAR-8 ovarian,> 100 µM
Cc1ccncc1.[O]=[Ge].[O]=[Ge].[O]=[Ge].[O]=[Ge].[O]=[Ge].[O]=[Ge][OH].[O]=[Ge][OH],GI50,MALME-3M melanoma,> 100 µM
same,TGI,MALME-3M melanoma,> 100 µM
same,GI50,SN12C renal,> 100 µM
same,TGI,SN12C renal,> 100 µM
same,GI50,KM12 colon,> 100 µM
same,TGI,KM12 colon,> 100 µM
same,GI50,SR leukemia,> 100 µM
same,TGI,SR leukemia,> 100 µM
same,GI50,RXF 393 renal,> 100 µM
same,TGI,RXF 393 renal,> 100 µM
same,GI50,HOP-62 NSCLC,> 100 µM
same,TGI,HOP-62 NSCLC,> 100 µM
same,GI50,DMS 114 small cell lung,> 100 µM
same,TGI,DMS 114 small cell lung,> 100 µM
same,GI50,NCI-H460 lung,> 100 µM
same,TGI,NCI-H460 lung,> 100 µM
same,GI50,M19-MEL melanoma,> 100 µM
same,TGI,M19-MEL melanoma,> 100 µM
same,GI50,OVCAR-8 ovarian,> 100 µM
same,TGI,OVCAR-8 ovarian,> 100 µM
CCCCCCCCCCCCOC(=S)NCCCC,TGI,MALME-3M melanoma,64 µM
same,TGI,SN12C renal,45.2 µM
same,TGI,KM12 colon,41.9 µM
same,TGI,SR leukemia,42.7 µM
same,TGI,RXF 393 renal,56.8 µM
same,TGI,HOP-62 NSCLC,73.4 µM
same,TGI,DMS 114 small cell lung,37.7 µM
same,TGI,NCI-H460 lung,53.2 µM
same,TGI,M19-MEL melanoma,> 100 µM
same,TGI,OVCAR-8 ovarian,40.2 µM
O=C([O-])c1ccccc1Nc1ccccn1.O=C([O-])c1ccccc1Nc1ccccn1.[Ni+2],GI50,MALME-3M melanoma,> 100 µM
same,TGI,MALME-3M melanoma,> 100 µM
same,GI50,SN12C renal,> 100 µM
same,TGI,SN12C renal,> 100 µM
same,GI50,KM12 colon,> 100 µM
same,TGI,KM12 colon,> 100 µM
same,GI50,SR leukemia,> 100 µM
same,TGI,SR leukemia,> 100 µM
same,GI50,RXF 393 renal,> 100 µM
same,TGI,RXF 393 renal,> 100 µM
same,GI50,HOP-62 NSCLC,> 100 µM
same,TGI,HOP-62 NSCLC,> 100 µM
same,GI50,DMS 114 small cell lung,> 100 µM
same,TGI,DMS 114 small cell lung,> 100 µM
same,GI50,NCI-H460 lung,> 100 µM
same,TGI,NCI-H460 lung,> 100 µM
same,GI50,M19-MEL melanoma,> 100 µM
same,TGI,M19-MEL melanoma,> 100 µM
same,GI50,OVCAR-8 ovarian,> 100 µM
same,TGI,OVCAR-8 ovarian,> 100 µM
